Results: PubChem BioAssay AID463203 (Broad Institute, 2010)
Active and inactive are the calls of the source.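 The calls were made as follows: active = more than half of replicate measurements showing over 20% loss of kinase signal relative to plate controls; inconclusive = some but at most half of replicates over 20% loss; inactive = no replicate over 20% signal loss.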

Biological target: Glycogen synthase kinase-3 alpha (Homo sapiens) (UniProt P49840)
Assay: concentration-response blocking of human GSK3A – biochemical, luminescence, cell-free homogeneous, retest, dose response (AID 463203)
Settings: GSK-3 alpha enzyme, ADP-Glo luminescence, 60 min

Sequence of Glycogen synthase kinase-3 alpha (Homo sapiens) (P49840 whole entry, looked up): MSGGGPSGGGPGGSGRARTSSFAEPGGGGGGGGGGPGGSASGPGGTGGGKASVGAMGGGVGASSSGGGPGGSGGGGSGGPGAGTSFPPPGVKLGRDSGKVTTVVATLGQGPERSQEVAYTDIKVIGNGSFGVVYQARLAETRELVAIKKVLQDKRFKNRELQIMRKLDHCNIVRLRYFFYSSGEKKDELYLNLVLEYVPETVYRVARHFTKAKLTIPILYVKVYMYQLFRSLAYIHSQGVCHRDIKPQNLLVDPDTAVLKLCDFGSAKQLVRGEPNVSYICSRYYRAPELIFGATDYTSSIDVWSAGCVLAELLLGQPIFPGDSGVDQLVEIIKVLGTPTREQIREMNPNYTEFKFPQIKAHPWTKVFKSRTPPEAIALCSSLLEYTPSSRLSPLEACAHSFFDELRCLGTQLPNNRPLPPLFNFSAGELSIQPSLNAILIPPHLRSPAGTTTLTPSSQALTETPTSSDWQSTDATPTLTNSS

Row | SMILES | AC50
1 | COc1ccc(NC(=O)/C(C#N)=C\C=C\c2ccco2)cc1 | > 30 µM (inactive)
2 | Nc1nc(Nc2ccc(Cl)cc2)n[nH]1 | > 30 µM (inactive)
3 | O=[N+]([O-])c1ccc(-c2nnc(CNC3CCCC3)o2)cc1 | > 30 µM (inactive)
4 | CCN(CC)CCCNc1ncnc2scc(-c3ccc(F)cc3)c12 | > 30 µM (inactive)
5 | COc1cc(/C=N/NC(=O)c2ccc(COc3ccccc3Cl)o2)cc(Br)c1O | > 30 µM (inactive)
6 | CC(C)c1c(C(=O)N/N=C/c2cccnc2)nnn1-c1nonc1N | > 30 µM (inactive)
7 | COc1ccccc1Nc1ccc(S(=O)(=O)N2CCCCC2)cc1[N+](=O)[O-] | > 30 µM (inactive)
8 | CC1CCN(Cc2c(C(=O)N/N=C/c3ccc(C(C)(C)C)cc3)nnn2-c2nonc2N)CC1 | > 30 µM (inactive)
9 | CC(=O)Nc1ccc(-c2csc(NCc3ccccc3)n2)cc1 | > 30 µM (inactive)
10 | CC(C(=O)Nc1cccc(Br)c1)c1ccc([N+](=O)[O-])cc1 (configuration not stated) | > 30 µM (inactive)
11 | COc1ccc(Nc2sc(C(=O)c3ccc(Cl)cc3)c(N)c2C(=O)Nc2ccccc2OC)cc1 | > 30 µM (inactive)
12 | CNc1cc(N2CCCC2)ccc1[N+](=O)[O-] | > 30 µM (inactive)
13 | COc1cccc(N(CC(=O)Nc2cccc(C(C)=O)c2)S(C)(=O)=O)c1 | > 30 µM (inactive)
14 | NC(=O)N/N=C/c1c(O)ccc2oc3c(c12)CCCC3 | 0.845 µM
15 | CCOC(=O)c1cc(-c2ccc(F)cc2)n(CC(=O)NCc2cccnc2)c1C | > 30 µM (inactive)
16 | O=C(Cn1ncc2c(=O)oc3ccccc3c21)N1CCc2ccccc2C1 | > 30 µM (inactive)
17 | COc1cccc(-c2c(C(=O)N/N=C(\C)c3cccs3)nnn2-c2nonc2N)c1 | 1.61 µM
18 | Cc1ccc2nc(-c3cccc(N)c3)[nH]c2c1 | > 30 µM (inactive)
19 | Cc1oc2ccc(O)c(CN3CCOCC3)c2c1C(=O)c1ccc(Cl)cc1 | > 30 µM (inactive)
20 | O=C(COc1ccccc1F)NC12CC3CC(CC(C3)C1)C2 | > 30 µM (inactive)
21 | CSc1ccc(CN2CCN(Cc3ccc([N+](=O)[O-])cc3)CC2)cc1 | > 30 µM (inactive)
22 | COc1ccccc1N1C(=O)C2C(c3ccccc3F)NN(C(=O)c3ccc(C)cc3)C2C1=O (configuration not stated) | > 30 µM (inactive)
23 | Nc1nonc1-n1nnc(C(=O)N/N=C/c2ccc(Cl)cc2Cl)c1CN1CCOCC1 | > 30 µM (inactive)
24 | Cc1nc(SCC(=O)Nc2nc3ccccc3s2)n[nH]1 | > 30 µM (inactive)
25 | CN1/C(=C\C=C2/SC(=S)NC2=O)C(C)(C)c2ccccc21 | 12.7 µM
26 | Fc1ccccc1N1CCN(CCCNc2ccc3nncn3n2)CC1 | > 30 µM (inactive)

Row | SMILES | AC50
27 | CC(=NCCO)c1c(O)n(C2CCCCC2)c(=O)[nH]c1=O | 26.9 µM
28 | COc1ccc(CCNC(=O)CSc2nc3[nH]ncc3c(=O)n2-c2cccc(C(F)(F)F)c2)cc1OC | > 30 µM (inactive)
29 | CCCCOC(=O)C1=C(C)Nc2ncnn2C1c1ccc(OC)c(OC)c1 (configuration not stated) | > 30 µM (inactive)
30 | Cc1[nH]nc(NCCO)c1[N+](=O)[O-] | > 30 µM (inactive)
31 | Cc1ccc(N=C2NC(=O)/C(=C\c3ccc(C)s3)S2)cc1 | > 30 µM (inactive)
32 | CCc1ccc(C2CC(c3ccccc3Cl)Nc3nc(N)nn32)cc1 (configuration not stated) | > 30 µM (inactive)
33 | O=C(O)c1ccc(Nc2nc(-c3ccccc3)nc3ccccc23)cc1 | > 30 µM (inactive)
34 | CCOc1ccccc1-n1c(O)c(C=NCCCn2ccnc2)c(=O)[nH]c1=O | 20.5 µM
35 | CCCC(=O)Nc1cc(-c2cn3cccnc3n2)ccc1OC | > 30 µM (inactive)
36 | CCCCn1c(O)c(C(C)=NCCCn2ccnc2)c(=O)[nH]c1=O | 11.1 µM
37 | Cc1cc(C)c2[nH]c(O)c(N=Nc3ccc(C(=O)O)cc3)c2c1 | > 30 µM (inactive)
38 | COc1ccc(C(=O)c2sc(Nc3ccccc3)c(C(=O)Nc3ccc(OC)c(OC)c3)c2N)cc1 | > 30 µM (inactive)
39 | Nc1nc(NCCO)nc(N2CCCCCC2)c1[N+](=O)[O-] | 18.4 µM
40 | NC1=NC(=O)/C(=C\c2ccco2)S1 | > 30 µM (inactive)
41 | Cn1c(=O)c2c([nH]c(=O)n2C)n(Cc2ccccc2)c1=O | > 30 µM (inactive)
42 | CCOC(=O)N1CCc2c(sc3nc4n(c(=O)c23)N=C(C)CS4)C1 | > 30 µM (inactive)
43 | CCCCOC(=O)C1=C(C)Nc2ncnn2C1c1cc(OC)ccc1OC (configuration not stated) | > 30 µM (inactive)
44 | COCCCNC(=O)C(=O)NC1CCCCCC1 | > 30 µM (inactive)
45 | S=C(Nc1cccnc1)Nc1cccc2cnccc12 | > 30 µM (inactive)
46 | COc1cc(-c2nnc(SCc3c(F)cccc3Cl)o2)cc(OC)c1OC | > 30 µM (inactive)
47 | COC(=O)C1=C(C)NC(=O)NC1c1ccc2c(c1)OCO2 (configuration not stated) | > 30 µM (inactive)
48 | CCOC(=O)c1cc(-c2ccccc2)n(CCC(=O)NC(C)CC)c1C (configuration not stated) | > 30 µM (inactive)
49 | C(=N\Nc1ncnc2sc3c(c12)CCC3)/c1ccncc1 | 5.85 µM
50 | COc1ccc(SCCN2CC[C@@H](C(C)(C)C)CCC2=O)cc1 | 23.6 µM
51 | NC(=O)c1nnn(-c2ccccc2)c1N | > 30 µM (inactive)
52 | Cc1ccc(C)c(Sc2ccc(NC(=O)CCl)cc2)c1 | > 30 µM (inactive)

Row | SMILES | AC50
53 | Cc1ccc(NC(=O)CSc2nnc(-c3ccncc3)o2)cc1 | > 30 µM (inactive)
54 | Cc1noc(C)c1COc1ccc(C(=O)OCC(=O)Nc2c(C)n(C)n(-c3ccccc3)c2=O)cc1 | > 30 µM (inactive)
55 | COCc1nnc(NC(=O)CCN2C(=O)c3ccccc3C2=O)s1 | > 30 µM (inactive)
56 | Fc1cccc(/C=N/Nc2cc(N3CCOCC3)ncn2)c1 | > 30 µM (inactive)
57 | O=C(O)Cn1c(=O)c2c3c(sc2n(Cc2ccc(Cl)cc2Cl)c1=O)CCCC3 | > 30 µM (inactive)
58 | CCN1C(=O)C(=C/C=C/c2ccco2)C(=O)N(CC)C1=S | > 30 µM (inactive)
59 | CCOc1ccc(Cn2nnc(C(=O)Nc3cc(C)cc(C)c3)c2N)cc1 | > 30 µM (inactive)
60 | CC1CCc2c(sc(NC(=O)CCCn3cnc([N+](=O)[O-])n3)c2C(N)=O)C1 (configuration not stated) | > 30 µM (inactive)
61 | CCOC(=O)c1cnn(C)c1NC(=O)c1ccc(Cl)cc1Cl | > 30 µM (inactive)
62 | CCC(=O)c1ccc(OCC(O)CN2CCCCC2)cc1 (configuration not stated) | > 30 µM (inactive)
63 | O=C(Oc1cccc([N+](=O)[O-])c1)N1CCCCC1 | > 30 µM (inactive)
64 | CCOC(=O)c1nnn(-c2nonc2N)c1-c1ccccc1Cl | 8.37 µM
65 | N#Cc1ccccc1Cn1cc(/C=N/Nc2ccc([N+](=O)[O-])cn2)c2ccccc21 | > 30 µM (inactive)
66 | Cc1ccc2c(c1)N(CCC(=O)NC(C)C)C(=O)CO2 | > 30 µM (inactive)
67 | CC(C)(C)c1ccc(/C=C2\Oc3cc(O)ccc3C2=O)cc1 | > 30 µM (inactive)
68 | CC(=O)c1sc(Nc2cccc(C)c2)nc1C | > 30 µM (inactive)
69 | O=C(Cn1c(NCCCO)nc2ccccc21)c1ccc([N+](=O)[O-])cc1 | > 30 µM (inactive)
70 | COc1ccc(C(=O)NCC(=O)N/N=C(C)\C=C\c2ccccc2)cc1OC | > 30 µM (inactive)
71 | CCNc1ccccc(C(=O)/C=C/c2ccc3c(c2)OCO3)c1=O | > 30 µM (inactive)
72 | CCN1CCN(c2nc(N)c([N+](=O)[O-])c(Nc3ccc(C)c(C)c3)n2)CC1 | > 30 µM (inactive)
73 | CC1CCCCC12NC(=O)N(CC(=O)Nc1sc3c(c1C(N)=O)CCC3)C2=O (configuration not stated) | 11.4 µM
74 | COc1ccc(-c2noc(CSc3nc(-c4ccccc4)cc(=O)[nH]3)n2)cc1 | > 30 µM (inactive)
75 | N#C/C(=N\Nc1ccccc1)C(N)=S | > 30 µM (inactive)
76 | C/C(NCCCn1ccnc1)=C(\C#N)C(N)=O | 19.2 µM
77 | Cc1nn(-c2ccccc2)c(C)c1/C=C/C(=O)OCC(=O)Nc1ccc(C(N)=O)cc1 | > 30 µM (inactive)
78 | Cc1cc(C)nc(NS(=O)(=O)c2cccs2)c1 | > 30 µM (inactive)

Row | SMILES | AC50
79 | Cc1cnc(NC(=O)C2CC(=O)N(c3ccc4c(c3)OCCO4)C2)s1 (configuration not stated) | > 30 µM (inactive)
80 | CC1(c2ccccc2)CC(C)(C)N2C(=O)/C(=C3\SC(=S)NC3=O)c3cccc1c32 (configuration not stated) | > 30 µM (inactive)
81 | CC(=O)C1C(c2ccc(C)cc2)c2c(n[nH]c2C)CC1(C)O (configuration not stated) | > 30 µM (inactive)
82 | CCc1cccc(NC(=O)C2CCN(c3ncnc4sc(C)c(C)c34)CC2)c1 | > 30 µM (inactive)
83 | CN1CCN(c2nc(NCc3ccco3)nc(N)c2[N+](=O)[O-])CC1 | > 30 µM (inactive)
84 | Cc1c(Nc2ncccc2C(=O)O)cccc1C(F)(F)F | > 30 µM (inactive)
85 | COc1ccccc1NC(=O)c1cc(Cl)ccc1NC(=O)c1ccco1 | > 30 µM (inactive)
86 | Cc1ccc(S(=O)(=O)Nc2cccc3ncccc23)cc1 | > 30 µM (inactive)
87 | Nc1nc(NCc2ccccc2)nc(NCc2ccccc2)c1[N+](=O)[O-] | > 30 µM (inactive)
88 | CC(C)=CCc1cc(-c2oc3cc(O)cc(O)c3c(=O)c2O)ccc1O | 9.4 µM
89 | CC(=O)Nc1ccc(C(=O)OCC(=O)Nc2c(C)n(C)n(-c3ccccc3)c2=O)cc1 | > 30 µM (inactive)
90 | COc1ccc(NC(=O)CN(C)C2CCCCC2)c([N+](=O)[O-])c1 | > 30 µM (inactive)
91 | CN(C)c1ccc(CN2CCCCC2)cc1 | > 30 µM (inactive)
92 | Cc1sc2ncnc(SCC(=O)NCC3CCCO3)c2c1C (configuration not stated) | > 30 µM (inactive)
93 | N#Cc1cc(-c2cccc(Cl)c2)c[nH]c1=O | > 30 µM (inactive)
94 | CCCc1c(C(=O)N/N=C/C(C)=C/c2ccco2)nnn1-c1nonc1N | > 30 µM (inactive)
95 | CCN(CC)CCCN(Cc1cc2cc3c(cc2[nH]c1=O)OCO3)C(=O)Nc1ccccc1OC | > 30 µM (inactive)
96 | COc1ccc(OC)c(/C=C2\Oc3cc(OCC(=O)N4CCC[C@H]4C(=O)O)ccc3C2=O)c1 | > 30 µM (inactive)
97 | COc1cc(/C=N/NC(=O)CSCc2ccc([N+](=O)[O-])cc2)cc(OC)c1OC | > 30 µM (inactive)
98 | COC1(OC)N=C(N)C2(C#N)C(c3cccc(Oc4ccccc4)c3)C12C#N (configuration not stated) | > 30 µM (inactive)
99 | COc1ccc(-c2nc(NC(=O)C3CC(=O)N(c4ccc5c(c4)OCCO5)C3)sc2C)cc1 (configuration not stated) | > 30 µM (inactive)
100 | COC(=O)c1cnn(C(=O)c2cc(OC)ccc2Br)c1N | > 30 µM (inactive)
101 | COCCCNc1nc(N)c([N+](=O)[O-])c(N2CCCCCC2)n1 | 9.97 µM
102 | C=CC(=O)Nc1sc2c(c1C(N)=O)CCCC2 | 13.9 µM
